Measurements taken from US6737383B1, “Herbicidal oxadiazolidines” (priority 1999, dated 2004).

Columns and labels:
[1] = tested on: bedstraw; assay: Test B pre/postemergence bedstraw; type: in vivo, Galium aparine
How it was run: (§1)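 Test chemicals in a non-phytotoxic solvent mixture with surfactant were sprayed preemergence onto planted seeds and postemergence onto plants 2 to 18 cm tall (1- to 4-leaf stage). After twelve to sixteen days in a greenhouse, injury was visually rated against untreated controls from 0 (no effect) to 10 (complete control).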

[2] = tested on: blackgrass; assay: Test B pre/postemergence blackgrass; type: in vivo, Alopecurus myosuroides
How it was run: as §1

[3] = tested on: surinam grass; assay: Test B pre/postemergence surinam grass; type: in vivo, Brachiaria decumbens
How it was run: as §1

[4] = tested on: cocklebur; assay: Test B pre/postemergence cocklebur; type: in vivo, Xanthium strumarium; details: for Cocklebur plant response rating: scale of 0 to 10 where 0 is no effect and 10 is complete control
How it was run: as §1

[5] = tested on: crabgrass; assay: Test B pre/postemergence crabgrass; type: in vivo, Digitaria sanguinalis; details: for Crabgrass plant response rating: scale of 0 to 10 where 0 is no effect and 10 is complete control
How it was run: as §1

[6] = tested on: giant foxtail; assay: Test B pre/postemergence giant foxtail; type: in vivo, Setaria faberii; details: for Giant foxtail plant response rating: scale of 0 to 10 where 0 is no effect and 10 is complete control
How it was run: as §1

[7] = tested on: morningglory; assay: Test B pre/postemergence morningglory; type: in vivo, Ipomoea hederacea; details: for Morningglory plant response rating: scale of 0 to 10 where 0 is no effect and 10 is complete control
How it was run: as §1

[8] = tested on: pigweed; assay: Test B pre/postemergence pigweed; type: in vivo, Amaranthus retroflexus; details: for Redroot pigweed plant response rating: scale of 0 to 10 where 0 is no effect and 10 is complete control
How it was run: as §1

[9] = tested on: sugar beet; assay: Test B pre/postemergence sugar beet; type: in vivo, Beta vulgaris; details: for Sugarbeets plant response rating: scale of 0 to 10 where 0 is no effect and 10 is complete control
How it was run: as §1

[10] = tested on: velvetleaf; assay: Test B pre/postemergence velvetleaf; type: in vivo, Abutilon theophrasti; details: for Velvetleaf plant response rating: scale of 0 to 10 where 0 is no effect and 10 is complete control
How it was run: as §1

[11] = tested on: wheat; assay: Test B pre/postemergence wheat; type: in vivo, Triticum aestivum; details: for Wheat plant response rating: scale of 0 to 10 where 0 is no effect and 10 is complete control
How it was run: as §1

[12] = tested on: wild oat; assay: Test B pre/postemergence wild oat; type: in vivo, Avena fatua; details: for Wild oats plant response rating: scale of 0 to 10 where 0 is no effect and 10 is complete control
How it was run: as §1

[13] = tested on: purple nutsedge; assay: Test B pre/postemergence purple nutsedge; type: in vivo, Cyperus rotundus; details: for Nutsedge plant response rating: scale of 0 to 10 where 0 is no effect and 10 is complete control
How it was run: as §1

[14] = tested on: rice; assay: Test B flood test rice; type: in vivo, Oryza sativa
How it was run: (§2)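 Plants were grown to the 2-leaf stage before treatment with test chemical, then held in a greenhouse for twelve to sixteen days. Injury was visually rated against untreated controls on a 0–10 scale, where 0 is no effect and 10 is complete control.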

[15] = tested on: duck salad; assay: Test B flood test duck salad; type: in vivo, Heteranthera limosa
How it was run: as §2

[16] = tested on: bamyardgrass; assay: Test B flood test barnyardgrass; type: in vivo, Echinochloa crus-galli
How it was run: as §2

[17] = Postemergence, Rate 125 g/ha, scale 0 to 10, 0 is no effect, 10 is complete control
[18] = Preemergence, Rate 62 g/ha, scale 0 to 10 (0 no effect, 10 complete control)
[19] = Preemergence, Rate 250 g/ha, scale of 0 to 10 where 0 is no effect and 10 is complete control
[20] = Preemergence, Rate 500 g/ha, scale of 0 to 10 where 0 is no effect and 10 is complete control
[21] = Rate 62 g/ha, Postemergence, scale of 0 to 10 where 0 is no effect and 10 is complete control
[22] = Rate 250 g/ha, Postemergence, scale of 0 to 10 where 0 is no effect and 10 is complete control
[23] = Rate 500 g/ha, Postemergence, scale 0 to 10, 0 no effect, 10 complete control
[24] = Postemergence (flood test), Rate 125 g/ha, scale 0 to 10, 0 is no effect, 10 is complete control
[25] = Rate 62 g/ha, Postemergence (flood test species), scale of 0 to 10 where 0 is no effect and 10 is complete control
[26] = Rate 500 g/ha, listed under Postemergence (flood test species), scale 0 to 10, 0 no effect, 10 complete control

COCC(C)n1c(=O)on(C(=O)N(c2ccc(F)cc2F)C(C)C)c1=O (centres unmarked) [Compound 357]
Plant response rating, Bedstraw [1, 17]: 0
Plant response rating, Bedstraw [1, 18]: 10
Bedstraw plant response rating (0 to 10 scale) ([1]; Preemergence, Rate 125 g/ha): 10
Bedstraw plant response rating [1, 19]: 10
Bedstraw plant response rating [1, 20]: 10
Bedstraw plant response rating [1, 21]: 0
Plant response rating, Bedstraw [1, 22]: 0
Plant response rating, Bedstraw [1, 23]: 5
Plant response rating, Blackgrass [2, 17]: 6
Plant response rating, Blackgrass [2, 18]: 7
Blackgrass plant response rating (0 to 10 scale) ([2]; Preemergence, Rate 125 g/ha): 8
Blackgrass plant response rating [2, 19]: 9
Blackgrass plant response rating [2, 20]: 10
Blackgrass plant response rating [2, 21]: 3
Plant response rating, Blackgrass [2, 22]: 6
Plant response rating, Blackgrass [2, 23]: 7
Plant response rating, B. signalgrass [3, 17]: 0
Plant response rating, B. signalgrass [3, 18]: 1
B. signalgrass plant response rating (0 to 10 scale, 0 is no effect, 10 is complete control) ([3]; Preemergence, Rate 125 g/ha): 3
B. signalgrass plant response rating [3, 19]: 6
B. signalgrass plant response rating [3, 20]: 7
B. signalgrass plant response rating [3, 21]: 0
Plant response rating, B. signalgrass [3, 22]: 4
Plant response rating, B. signalgrass [3, 23]: 7
Plant response rating, Cocklebur [4, 17]: 0
Plant response rating, Cocklebur [4, 18]: 0
Cocklebur plant response rating (0 to 10 scale) ([4]; Preemergence, Rate 125 g/ha): 0
Cocklebur plant response rating ([4]; Preemergence, Rate 250 g/ha): 0
Cocklebur plant response rating ([4]; Preemergence, Rate 500 g/ha): 0
Cocklebur plant response rating ([4]; Rate 62 g/ha, Postemergence): 0
Plant response rating, Cocklebur [4, 23]: 2
Plant response rating, Crabgrass [5, 17]: 2
Plant response rating, Crabgrass [5, 18]: 9
Crabgrass plant response rating (0 to 10 scale) ([5]; Preemergence, Rate 125 g/ha): 9
Crabgrass plant response rating ([5]; Preemergence, Rate 250 g/ha): 9
Crabgrass plant response rating ([5]; Preemergence, Rate 500 g/ha): 10
Crabgrass plant response rating ([5]; Rate 62 g/ha, Postemergence): 2
Plant response rating, Crabgrass [5, 23]: 5
Plant response rating, Giant foxtail [6, 17]: 8
Plant response rating, Giant foxtail [6, 18]: 10
Giant foxtail plant response rating (0 to 10 scale) ([6]; Preemergence, Rate 125 g/ha): 10
Giant foxtail plant response rating ([6]; Preemergence, Rate 250 g/ha): 10
Giant foxtail plant response rating ([6]; Preemergence, Rate 500 g/ha): 10
Giant foxtail plant response rating ([6]; Rate 62 g/ha, Postemergence): 8
Plant response rating, Giant foxtail [6, 23]: 9
Plant response rating, Morningglory [7, 17]: 2
Plant response rating, Morningglory [7, 18]: 0
Morningglory plant response rating (0 to 10 scale) ([7]; Preemergence, Rate 125 g/ha): 2
Morningglory plant response rating ([7]; Preemergence, Rate 250 g/ha): 2
Morningglory plant response rating ([7]; Preemergence, Rate 500 g/ha): 7
Morningglory plant response rating ([7]; Rate 62 g/ha, Postemergence): 2
Plant response rating, Morningglory [7, 23]: 8
Plant response rating, Redroot pigweed [8, 17]: 0
Plant response rating, Redroot pigweed [8, 18]: 7
Redroot pigweed plant response rating (0 to 10 scale) ([8]; Preemergence, Rate 125 g/ha): 10
Redroot pigweed plant response rating ([8]; Preemergence, Rate 250 g/ha): 10
Redroot pigweed plant response rating ([8]; Preemergence, Rate 500 g/ha): 10
Redroot pigweed plant response rating ([8]; Rate 62 g/ha, Postemergence): 0
Plant response rating, Redroot pigweed [8, 23]: 8
Plant response rating, Sugarbeets [9, 17]: 0
Plant response rating, Sugarbeets [9, 18]: 2
Sugarbeets plant response rating (0 to 10 scale) ([9]; Preemergence, Rate 125 g/ha): 3
Sugarbeets plant response rating ([9]; Preemergence, Rate 250 g/ha): 5
Sugarbeets plant response rating ([9]; Preemergence, Rate 500 g/ha): 6
Sugarbeets plant response rating ([9]; Rate 62 g/ha, Postemergence): 0
Plant response rating, Sugarbeets [9, 23]: 0
Plant response rating, Velvetleaf [10, 17]: 2
Plant response rating, Velvetleaf [10, 18]: 4
Velvetleaf plant response rating (0 to 10 scale) ([10]; Preemergence, Rate 125 g/ha): 5
Velvetleaf plant response rating ([10]; Preemergence, Rate 250 g/ha): 5
Velvetleaf plant response rating ([10]; Preemergence, Rate 500 g/ha): 7
Velvetleaf plant response rating ([10]; Rate 62 g/ha, Postemergence): 2
Plant response rating, Velvetleaf [10, 23]: 4
Plant response rating, Wheat [11, 17]: 5
Plant response rating, Wheat [11, 18]: 4
Wheat plant response rating (0 to 10 scale) ([11]; Preemergence, Rate 125 g/ha): 6
Wheat plant response rating ([11]; Preemergence, Rate 250 g/ha): 9
Wheat plant response rating ([11]; Preemergence, Rate 500 g/ha): 9
Wheat plant response rating ([11]; Rate 62 g/ha, Postemergence): 4
Plant response rating, Wheat [11, 23]: 7
Plant response rating, Wild oats [12, 17]: 4
Plant response rating, Wild oats [12, 18]: 9
Wild oats plant response rating (0 to 10 scale) ([12]; Preemergence, Rate 125 g/ha): 10
Wild oats plant response rating ([12]; Preemergence, Rate 250 g/ha): 10
Wild oats plant response rating ([12]; Preemergence, Rate 500 g/ha): 10
Wild oats plant response rating ([12]; Rate 62 g/ha, Postemergence): 3
Plant response rating, Wild oats [12, 23]: 6
Plant response rating, Nutsedge [13, 17]: 0
Plant response rating, Nutsedge [13, 18]: 0
Nutsedge plant response rating (0 to 10 scale) ([13]; Preemergence, Rate 125 g/ha): 0
Nutsedge plant response rating ([13]; Preemergence, Rate 250 g/ha): 0
Nutsedge plant response rating ([13]; Preemergence, Rate 500 g/ha): 6
Nutsedge plant response rating ([13]; Rate 62 g/ha, Postemergence): 0
Plant response rating, Nutsedge [13, 23]: 2
Plant response rating, Rice [14, 24]: 0
Rice plant response rating [14, 25]: 0
Plant response rating, Rice [14, 26]: 2
Plant response rating, Ducksalad [15, 24]: 0
Ducksalad plant response rating [15, 25]: 0
Plant response rating, Ducksalad [15, 26]: 2
Plant response rating, Barnyardgrass [16, 24]: 2
Barnyardgrass plant response rating [16, 25]: 0
Plant response rating, Barnyardgrass ([16]; Rate 250 g/ha, Postemergence (flood test species), scale of 0 to 10 where 0 is no effect and 10 is complete control): 4
Plant response rating, Barnyardgrass [16, 26]: 6
